Results: US12337004B2, “Coumarin-modified androgens for the treatment of prostate cancer” (Health Research, Inc., priority 2019, dated 2025)
Entries after “also recorded” stand apart in the source; their conditions may differ. Where a name gives a salt, the structure may show the parent alone.

Assays:
VCaP cells = assay: MTT cell growth, VCaP; assay type: cell-based
Method: (§1) Identification of a 3α-oxidoreductase inhibitors: Various non-steroidal compounds were tested for anti-neoplastic activity by screening against PC-3 CaP cells. Coumarin-labeled androgens were developed to track changes in androgen metabolism pathways in response to castration or androgen metabolism inhibition using in vitro and in vivo CaP cell models.
(§2) VCaP, CWR-R1 and PC-3 cells were treated for six days with complete culture media (CM), serum-free culture media (SFM), bicalutamide (Bic) at 10 μM, the coumarin C at 20 μM, DHT at 10 nM, DHT-17C at 20 nM and DHT-3C at 20 nM (FIG. 20). […] MTT analysis was performed to compare cell growth impairment of VCaP cells treated with DHT-17C versus enzalutamide. Cells were treated with DHT-17C at 1 nM, 12 nM, 20 nM, 50 nM or 100 nM concentrations, or enzalutamide at 1 μM, 12 μM, 20 μM, 50 μM or 100 μM concentrations. […] MTT performed using ezanlutamide (20 uM) or DHT-17C (50 nM) treated mutant AR and AR-V7 positive CWR-R1 cells supported VCaP MTT data (FIG. 22).

CWR-R1 cells = assay: MTT cell growth, CWR-R1; assay type: cell-based, human; conditions: six days; DHT-17C at 20 nM, DHT-3C at 20 nM
Method: as §1, §2

LAPC-4 cells = assay: MTT cell growth, LAPC-4; assay type: cell-based; conditions: six days; data not shown
LNCaP cells = assay: MTT cell growth, LNCaP; assay type: cell-based; conditions: six days; data not shown
CaP cell lines = assay: MTT CaP cell growth during androgen deprivation, cell line panel; assay type: cell-based; conditions: SFM with DHT-3C, six days
Excerpt: MTT analysis was used to assess if treatment with DHT-3C facilitated CaP cell growth during androgen deprivation. […] SFM with DHT-3C stimulated growth in 3 of 5 cell lines (FIG. 25).

AR-GFP = molecular target: T1, AR-GFP (Homo sapiens, UniProt P10275); assay: ImageStream nuclear co-localization with AR-GFP; assay type: cell-based
T1 construct: expressed in transfected cells; host or cells: VCaP, PC-3 (also LAPC-4, CWR-R1, 22Rv1, DU145)
T1 sequence (P10275 1-920): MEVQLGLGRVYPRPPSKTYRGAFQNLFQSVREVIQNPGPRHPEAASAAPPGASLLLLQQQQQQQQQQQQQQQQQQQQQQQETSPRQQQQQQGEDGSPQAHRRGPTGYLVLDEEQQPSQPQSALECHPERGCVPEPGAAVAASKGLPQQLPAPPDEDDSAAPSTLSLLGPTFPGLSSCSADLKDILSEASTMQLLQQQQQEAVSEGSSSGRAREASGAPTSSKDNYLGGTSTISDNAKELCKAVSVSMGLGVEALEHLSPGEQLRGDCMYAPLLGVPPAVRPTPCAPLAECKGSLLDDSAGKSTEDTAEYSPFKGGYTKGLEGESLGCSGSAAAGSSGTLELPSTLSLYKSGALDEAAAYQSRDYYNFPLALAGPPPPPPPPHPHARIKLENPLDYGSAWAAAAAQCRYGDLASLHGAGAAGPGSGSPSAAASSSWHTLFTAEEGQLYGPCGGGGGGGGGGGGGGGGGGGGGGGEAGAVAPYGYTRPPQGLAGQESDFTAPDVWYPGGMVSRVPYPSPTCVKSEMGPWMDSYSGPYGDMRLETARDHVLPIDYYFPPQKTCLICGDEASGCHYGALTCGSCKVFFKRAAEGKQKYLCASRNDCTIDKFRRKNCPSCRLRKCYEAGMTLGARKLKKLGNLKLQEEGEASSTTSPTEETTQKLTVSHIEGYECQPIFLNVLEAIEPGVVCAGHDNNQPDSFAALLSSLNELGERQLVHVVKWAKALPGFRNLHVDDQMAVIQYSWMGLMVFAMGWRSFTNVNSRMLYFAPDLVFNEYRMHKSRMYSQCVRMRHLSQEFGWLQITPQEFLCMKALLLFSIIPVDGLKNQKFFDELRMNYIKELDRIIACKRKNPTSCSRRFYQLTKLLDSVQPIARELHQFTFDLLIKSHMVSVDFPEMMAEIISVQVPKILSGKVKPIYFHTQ
Excerpt: Androgen-sensitive AR-positive LAPC-4 and VCaP, castration-recurrent and AR-positive CWR-R1 and CWR-22rv1 (22rv1), and AR-negative PC-3 and DU145 cells were transfected with either an empty pCMV expression plasmid (control) or a pCMV plasmid that encoded a wild-type AR tagged with a C-terminal green fluorescent protein (GFP; AR-GFP). AR-positive CaP cell lines were transfected with AR-GFP to assess if DHT-17C or DHT-3C co-localized with AR and translocated to the nucleus.
AR positive CaP cell lines were treated for 16 hours with androgen-free, serum-free complete media (SFM) alone, or SFM that contained 20 nM or 50 nM fluorescent-androgens or C alone. The time points were chosen to measure differences in uptake of the fluorescent-androgens and nuclear or cytosolic localization of the fluorescent-androgens and/or AR-GFP.
Serum-free complete media (SFM)^2 was used to androgen deprive cells.

[1] = tested on: AR- or AR-GFP negative PC-3 cells; assay: ImageStream nuclear localization in AR-negative PC-3 cells; assay type: cell-based; conditions: PC-3 cells without AR or AR-GFP (empty plasmid); hydrochloride
Method: (§3) ImageStream studies were repeated using VCaP and PC-3 cells that stably expressed AR-V2 (splice-variant that lacked the N-terminus) with C-terminal GFP (AR-V2-GFP). […] ImageStream data was confirmed using immunoprecipation (IP) studies performed with a DHT-targeted antibody.
(§4) Serum-free complete media (SFM)^2 was used to androgen deprive cells. PC-3 cells that contained empty plasmid were treated with SFM alone, SFM with C or SFM with DHT-3C.

AR-V2-GFP = molecular target: T2, AR-V2-GFP (Homo sapiens, UniProt P10275); assay: ImageStream co-localization with AR-V2-GFP; assay type: cell-based; conditions: VCaP and PC-3 cells that stably expressed AR-V2-GFP; hydrochloride
T2 construct: stably expressed AR170 LBD only with splice variant V2 (AR-V2-GFP); expressed in transfected cells; host or cells: VCaP, PC-3
T2 sequence (P10275 1-388 isoform P10275-2): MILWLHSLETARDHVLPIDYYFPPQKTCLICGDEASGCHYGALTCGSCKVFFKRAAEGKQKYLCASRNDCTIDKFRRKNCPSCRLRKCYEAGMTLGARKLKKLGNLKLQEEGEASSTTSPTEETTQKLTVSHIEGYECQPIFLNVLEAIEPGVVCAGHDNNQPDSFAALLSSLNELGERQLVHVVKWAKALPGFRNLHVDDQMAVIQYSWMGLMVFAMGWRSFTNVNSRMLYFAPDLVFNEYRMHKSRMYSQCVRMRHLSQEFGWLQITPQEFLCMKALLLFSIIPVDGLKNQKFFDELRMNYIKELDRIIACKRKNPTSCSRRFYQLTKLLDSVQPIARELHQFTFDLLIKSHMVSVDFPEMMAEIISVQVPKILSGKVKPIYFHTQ
Method: as §3, §4

KLK2 [2] = assay: qRT-PCR of AR-regulated gene KLK2; assay type: cell-based; conditions: 24 hours; VCaP, LAPC-4, LNCaP, CWR-R1 and 22rv1 cells
KLK2 [3] = assay: Western blot of AR-regulated protein expression; assay type: cell-based; conditions: CaP cell lines
CRPC = conditions: cited from earlier work

## C[C@]12CC[C@]3(C[C@@H]1CC[C@@H]1[C@@H]2CC[C@]2(C)[C@@H](O)CC[C@@H]12)NCCc1c3c(=O)oc2c3c4c(cc12)CCCN4CCC3 [DHT-3C, (3R,5S,10S,13S,17S)-17-hydroxy-10,13-dimethyl-1,2,2′,3′,4,5,6,7,8,8′,9,9′,10,11,12,12′,13,13′,14,15,16,17-docosahydro-7′H,11′H-spiro[cyclopenta[a]phenanthrene-3,4′-pyrido[3,2,1-ij]pyrido[4′,3′:4,5]pyrano[2,3-j]quinolin]-5′(1′H)-one hydrochloride]
VCaP cells; six days, DHT-17C at 20 nM, DHT-3C at 20 nM
  VCaP cell growth (MTT): promoted VCaP, LAPC-4, and LNCaP cell growth
CWR-R1 cells
  CWR-R1 cell growth (MTT): promoted
LAPC-4 cells
  LAPC-4 cell growth (MTT): promoted VCaP, LAPC-4, and LNCaP cell growth
LNCaP cells
  LNCaP cell growth (MTT): promoted VCaP, LAPC-4, and LNCaP cell growth
CaP cell lines
  cell lines with stimulated growth: 3 of 5
AR-GFP; PC-3-AR-GFP cells, SFM
  nuclear co-localization with AR-GFP: showed nuclear co-localization between DHT-3C and AR-GFP
AR-GFP; VCaP that stably expressed AR-GFP
  nuclear co-localization with AR-GFP: demonstrated co-localization between DHT-3C and AR-GFP
AR-GFP; VCaP-AR-GFP and PC-3-AR-GFP cells
  nuclear co-localization with AR-GFP and DRAQ5: co-localized with AR-GFP
[1]
  nuclear localization in AR-negative cells: did not produce nuclear fluorescence
AR-V2-GFP
  co-localization with AR-V2-GFP: co-localized with DRAQ5 and AR-V2-GFP; also recorded: co-localized with the AR LBD
KLK2 [2]
  KLK2 transcript induction: produced similar inductions of expression
KLK2 [3]
  AR-regulated protein expression levels: produced similar AR-regulated protein expression levels

## CNC(=O)c1ccc(N2C(=S)N(c3ccc(C#N)c(C(F)(F)F)c3)C(=O)C2(C)C)cc1F [enzalutamide, reference compound]
VCaP cells; enzalutamide at 1, 12, 20, 50 or 100 μM
  VCaP cell growth impairment versus DHT-17C: impaired VCaP cell growth to similar extents
CRPC
  extension of survival: 4.8 months
